Values joined by “and” are separate entries in the source; they are usually repeats but may differ in a detail not shown here. Equal entries are not always repeated. Toxic doses and inconclusive results are not listed. Rule as the data show it: active = T/C of 150% or more; inactive = T/C below 125%.
System: L1210 leukemia ip in BDF1 mice, survival T/C
Experiment: NCI In Vivo Anticancer Drug Screen. Data for tumor model L1210 Leukemia (intraperitoneal) in B6D2F1 (BDF1) mice
Conditions: endpoint: mean survival time, higher = longer survival
Method in brief: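 Antitumor effect is assessed in tumor-bearing animals. Survival in the compound arm is compared with a vehicle-dosed control arm and expressed as their quotient.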

[1] = dose: 25.0 mg/kg/injection, schedule: Q01DX009 (ip), vehicle: Klucel (hydroxypropylcellulose) (HPC)
[2] = dose: 25.0 mg/kg/injection, schedule: Q04DX003 (ip), vehicle: Klucel (hydroxypropylcellulose) (HPC)
[3] = dose: 50.0 mg/kg/injection, schedule: Q01DX009 (ip), vehicle: Klucel (hydroxypropylcellulose) (HPC)
[4] = dose: 50.0 mg/kg/injection, schedule: Q04DX003 (ip), vehicle: Klucel (hydroxypropylcellulose) (HPC)
[5] = dose: 100.0 mg/kg/injection, schedule: Q01DX009 (ip), vehicle: Klucel (hydroxypropylcellulose) (HPC)
[6] = dose: 100.0 mg/kg/injection, schedule: Q04DX003 (ip), vehicle: Klucel (hydroxypropylcellulose) (HPC)
[7] = dose: 200.0 mg/kg/injection, schedule: Q01DX009 (ip), vehicle: Klucel (hydroxypropylcellulose) (HPC)
[8] = dose: 400.0 mg/kg/injection, schedule: Q01DX009 (ip), vehicle: Klucel (hydroxypropylcellulose) (HPC)
[9] = dose: 100.0 mg/kg/injection, schedule: Q01DX001 (ip), vehicle: saline
[10] = dose: 200.0 mg/kg/injection, schedule: Q01DX001 (ip), vehicle: saline
[11] = dose: 400.0 mg/kg/injection, schedule: Q01DX001 (ip), vehicle: saline
[12] = dose: 100.0 mg/kg/injection, schedule: Q04DX003 (ip), vehicle: saline
[13] = dose: 100.0 mg/kg/injection, schedule: Q01DX009 (ip), vehicle: saline with Tween-80
[14] = dose: 100.0 mg/kg/injection, schedule: Q04DX002 (ip), vehicle: saline with Tween-80
[15] = dose: 200.0 mg/kg/injection, schedule: Q01DX009 (ip), vehicle: saline with Tween-80
[16] = dose: 200.0 mg/kg/injection, schedule: Q04DX002 (ip), vehicle: saline with Tween-80
[17] = dose: 400.0 mg/kg/injection, schedule: Q04DX002 (ip), vehicle: saline with Tween-80

Measured: T/C

CCCC(C)(COC(N)=O)COC(=O)NC(C)C (centres undefined)
inactive: [1] 102 % of control | [2] 101 % of control | [3] 97 % of control | [4] 92 % of control | [5] 94 % of control | [6] 101 % of control | [7] 97 % of control | dose: 200.0 mg/kg/injection, schedule: Q04DX003 (ip), vehicle: Klucel (hydroxypropylcellulose) (HPC) 95 % of control | [8] 88 % of control | dose: 400.0 mg/kg/injection, schedule: Q04DX003 (ip), vehicle: Klucel (hydroxypropylcellulose) (HPC) 101 % of control

O=C(N/N=C\c1ccc([N+](=O)[O-])cc1)c1ccco1
inactive: dose: 100.0 mg/kg/injection, schedule: Q01DX001 (ip), vehicle: other 93 % of control | dose: 200.0 mg/kg/injection, schedule: Q01DX001 (ip), vehicle: other 93 % of control | dose: 400.0 mg/kg/injection, schedule: Q01DX001 (ip), vehicle: other 93 % of control

CCCCCC/C(C)=N/Nc1ccc([N+](=O)[O-])cc1[N+](=O)[O-]
inactive: [9] 93 % of control | [10] 102 % of control | [11] 100 % of control

NC(=S)N/N=C\c1c[nH]c2cc(C(F)(F)F)ccc12
inactive: dose: 5.0 mg/kg/injection, schedule: Q01DX001 (ip), vehicle: carboxymethylcellulose (CMC) 101 % of control | dose: 10.0 mg/kg/injection, schedule: Q01DX001 (ip), vehicle: carboxymethylcellulose (CMC) 95 % of control | dose: 20.0 mg/kg/injection, schedule: Q01DX001 (ip), vehicle: carboxymethylcellulose (CMC) 101 % of control | dose: 40.0 mg/kg/injection, schedule: Q01DX001 (ip), vehicle: carboxymethylcellulose (CMC) 101 % of control

C[PH+](c1ccccc1)c1ccccc1.C[PH+](c1ccccc1)c1ccccc1.[Br][Pd][Br]
inactive: dose: 50.0 mg/kg/injection, schedule: Q04DX003 (ip), vehicle: saline 98 % of control | [12] 105 % of control | dose: 200.0 mg/kg/injection, schedule: Q04DX003 (ip), vehicle: saline 100 % of control

Cc1c2ccccc2c(CCl)c2ccc3ccccc3c12
inactive: dose: 12.5 mg/kg/injection, schedule: Q01DX009 (ip), vehicle: carboxymethylcellulose (CMC) 110 % of control | dose: 25.0 mg/kg/injection, schedule: Q01DX009 (ip), vehicle: carboxymethylcellulose (CMC) 113 % of control

Cc1ccc(S(=O)(=O)NC(=O)N2CCCC2)cc1
inactive: dose: 50.0 mg/kg/injection, schedule: Q01DX001 (ip), vehicle: saline 109 % of control | [9] 97 % of control | [10] 94 % of control | [11] 88 % of control

Cc1cc2ccccc2c(N)c1C#N
inactive: [13] 102 % of control and 106 % of control | [14] 93 % of control and 100 % of control | [15] 92 % of control and 90 % of control | [16] 91 % of control | dose: 400.0 mg/kg/injection, schedule: Q01DX009 (ip), vehicle: saline with Tween-80 95 % of control | [17] 100 % of control and 88 % of control

CN(C)c1cc2c3ccccc3ccc2c2ccccc12
inactive: dose: 100.0 mg/kg/injection, schedule: Q01DX001 (ip), vehicle: olive oil, sesame oil, peanut oil 100 % of control | dose: 200.0 mg/kg/injection, schedule: Q01DX001 (ip), vehicle: olive oil, sesame oil, peanut oil 103 % of control | dose: 400.0 mg/kg/injection, schedule: Q01DX001 (ip), vehicle: olive oil, sesame oil, peanut oil 102 % of control

C#CC1(O)CCCCCC1
inactive: [14] 95 % of control | [16] 100 % of control | [17] 92 % of control

CC(=O)c1ccc(N=C=O)cc1
inactive: dose: 400.0 mg/kg/injection, schedule: Q01DX001 (ip), vehicle: saline with Tween-80 95 % of control

CC(C)=C1N=C(c2ccccc2)OC1=O
inactive: dose: 100.0 mg/kg/injection, schedule: Q04DX002 (ip), vehicle: Klucel (hydroxypropylcellulose) (HPC) 97 % of control | dose: 200.0 mg/kg/injection, schedule: Q04DX002 (ip), vehicle: Klucel (hydroxypropylcellulose) (HPC) 111 % of control | dose: 400.0 mg/kg/injection, schedule: Q04DX002 (ip), vehicle: Klucel (hydroxypropylcellulose) (HPC) 111 % of control

CC(=O)CC1(O)C(=O)Nc2ccccc21 (centres undefined)
inactive: [5] 101 % of control | [7] 95 % of control | [8] 98 % of control

CCCCCCCCCCCCCCCC[N+]1(Cc2ccccc2)CCOCC1
inactive: [3] 99 % of control | [5] 99 % of control

Sc1ccccc1Cl
inactive: dose: 12.5 mg/kg/injection, schedule: Q01DX009 (ip), vehicle: Klucel (hydroxypropylcellulose) (HPC) 97 % of control | [1] 95 % of control | [2] 103 % of control | [3] 97 % of control | [4] 103 % of control | [6] 102 % of control

CCCCCCCC[n+]1cccc(C#N)c1
inactive: dose: 18.75 mg/kg/injection, schedule: Q01DX009 (ip), vehicle: saline 104 % of control | dose: 37.5 mg/kg/injection, schedule: Q01DX009 (ip), vehicle: saline 91 % of control | dose: 37.5 mg/kg/injection, schedule: Q04DX003 (ip), vehicle: acetone 97 % of control | dose: 75.0 mg/kg/injection, schedule: Q01DX001 (ip), vehicle: saline 91 % of control | dose: 75.0 mg/kg/injection, schedule: Q01DX009 (ip), vehicle: saline 93 % of control | dose: 75.0 mg/kg/injection, schedule: Q04DX003 (ip), vehicle: acetone 97 % of control | dose: 150.0 mg/kg/injection, schedule: Q01DX001 (ip), vehicle: saline 95 % of control | dose: 150.0 mg/kg/injection, schedule: Q04DX003 (ip), vehicle: acetone 95 % of control

NCCCCCCNC(=O)CCC(=O)NCCCCCCN
inactive: dose: 8.0 mg/kg/injection, schedule: Q01DX Z (ip), vehicle: water 86 % of control | dose: 16.0 mg/kg/injection, schedule: Q01DX Z (ip), vehicle: water 91 % of control | dose: 32.0 mg/kg/injection, schedule: Q01DX Z (ip), vehicle: water 88 % of control | dose: 64.0 mg/kg/injection, schedule: Q01DX Z (ip), vehicle: saline 109 % of control | dose: 64.0 mg/kg/injection, schedule: Q01DX Z (ip), vehicle: water 91 % of control | dose: 128.0 mg/kg/injection, schedule: Q01DX Z (ip), vehicle: saline 88 % of control

Cc1cc2oc(=O)cc(N3CCOCC3)c2c(=O)o1
inactive: [13] 117 % of control | [15] 114 % of control

CC(C)c1oc2ccccc2c1C(=O)c1ccncc1
inactive: dose: 75.0 mg/kg/injection, schedule: Q04DX003 (ip), vehicle: saline with Tween-80 97 % of control | dose: 150.0 mg/kg/injection, schedule: Q04DX003 (ip), vehicle: saline with Tween-80 101 % of control | dose: 300.0 mg/kg/injection, schedule: Q04DX003 (ip), vehicle: saline with Tween-80 101 % of control

O=C(CN1CCCCC1Cl)c1ccccc1 (centres undefined)
inactive: [9] 105 % of control | [12] 100 % of control

c1ccc(CNCc2cccnc2)cc1
inactive: dose: 75.0 mg/kg/injection, schedule: Q01DX009 (ip), vehicle: other 91 % of control | dose: 150.0 mg/kg/injection, schedule: Q01DX009 (ip), vehicle: other 98 % of control

— PubChem BioAssay AID248 (DTP/NCI, 2004)
